Consider 122 compounds from a melting point compilation (Tetko et al.).

`Cc1cc(C(=O)O)nn1-c1ccc(Cl)c(Cl)c1` came in with a melting point of 219 to 221 °C.

Regarding `N#Cc1cccc(CS(=O)(=O)NN)c1`, the melting point lay within 139 to 141 °C.

`O=C(O)c1ccc(O)c(S(=O)(=O)Cl)c1`: the melting point lay in the range of 189 to 191 °C.

`Cc1ccc(N2CCCC2)c(C(=O)O)c1` had a melting point of 124 to 126 °C.

In turn, `N#CCCCS(N)(=O)=O` displayed a melting point of 49 to 51 °C.

Compound `Cc1sc2ncnc(SCCC(=O)O)c2c1C` showed a melting point of 187 to 189 °C.

`N#Cc1ccccc1Sc1ccc(C(=O)O)cc1` gave a melting point of 182 to 184 °C.

Compound `COc1cc(CN)ccc1OCCO` had a melting point of 113 to 115 °C.

As for `COC(=O)c1ccc(CCC(=O)O)cc1`, the melting point lay within 113 to 115 °C.

`O=C(O)C(CO)NS(=O)(=O)c1ccc(Cl)cc1` (configuration not stated) came in with a melting point of 206 to 208 °C.

Turning to `COc1ccccc1NCC(=O)O`, the melting point is 159 to 161 °C.

Take `CC(c1ccc(Cl)cc1Cl)S(N)(=O)=O` (configuration not stated): the melting point fell in the range of 123 to 125 °C.

As to `N#Cc1cccc([N+](=O)[O-])c1O`, the melting point lay in the range of 130 to 132 °C.

Regarding `Nc1ccc2c(c1)CC(=O)N2`, the melting point was 190 to 192 °C.

`COc1ccc(CN2C(=O)c3ccccc3C2=O)cc1C(=O)O` registered a melting point of 143 to 145 °C.

`Clc1ccc(N2CCCC2)nn1` registered a melting point of 115 to 116 °C.

With `O=C1C(=O)N(CN2CCN(CCO)CC2)c2ccccc21`, the melting point was 157 to 159 °C.

The compound `O=c1[nH]cc(Br)c2sccc12` displayed a melting point of 229 to 231 °C.

`CC(=O)c1[nH]c2c(c1C)C(=O)NC(=O)C2` displayed a melting point of 354 to 356 °C.

Compound `CCOc1c(Cl)cc(C(=O)O)cc1OC` gave a melting point of 116 to 118 °C.

As to `CC(C)C(CN)C(=O)O` (configuration not stated), the melting point lay within 249 to 251 °C.

`Nc1ncnc2c1ncn2CCCCl`: the melting point fell in the range of 339 to 341 °C.

In the case of `CSc1ccc(NC(=O)C(C)Cl)cc1` (configuration not stated), the melting point fell in the range of 129 to 131 °C.

Take `Cc1ccc(S(=O)(=O)N2CCCCC2)cc1NC(=O)CCl`: the melting point lay within 107 to 109 °C.

For `O=C(O)CC1(O)CCCC1`, the melting point is 72 to 74 °C.

In the case of `COc1ccc(CCC(=O)O)c(OC)c1OC`, the melting point lay in the range of 73 to 75 °C.

In the case of `Cc1ccncc1C(=O)O`, the melting point is 199 to 201 °C.

In turn, `CC(=O)c1sc2nc(CCl)[nH]c(=O)c2c1C` had a melting point of 247 to 249 °C.

Turning to `O=C(O)c1ccc(N2CCNC2=O)cc1`, the melting point is 313 to 315 °C.

`CC(C)C(Br)C(=O)NCc1ccco1` (configuration not stated): the melting point fell in the range of 91 to 93 °C.

With `CCOC(=O)c1cnn(CCC#N)c1`, the melting point fell in the range of 87 to 89 °C.

Compound `N#CCc1c[nH]c2ccc(F)cc12` registered a melting point of 54 to 56 °C.

For the compound `Clc1ccc(CBr)c2ncccc12`, the melting point lay within 94 to 96 °C.

In turn, `CCCOc1ccc(-c2nc(C(=O)O)cs2)cc1` had a melting point of 183 to 185 °C.

As to `NNC(=O)Nc1cc(F)cc(F)c1`, the melting point lay within 176 to 178 °C.

Take `CC(NC(=O)Nc1ccccc1)C(=O)O` (configuration not stated): the melting point was 180 to 182 °C.

The compound `Cn1ncnc1-c1cccc(N)c1` yielded a melting point of 93 to 95 °C.

Consider `O=C(O)C1CCN(S(=O)(=O)c2ccccc2C(F)(F)F)CC1`, for which the melting point was in the range of 127 to 129 °C.

`COc1ccccc1NC1=NCC(C)S1` (configuration not stated) yielded a melting point of 92 to 97 °C.

In the case of `Ic1cnc2ccccc2c1`, the melting point was 57 to 59 °C.

The compound `CCn1cnnc1CNC(=O)OCC(F)(F)F` gave a melting point of 102 to 104 °C.

Take `NC(=O)c1nnc(O)nc1O`: the melting point fell in the range of 294 to 296 °C.

As to `CC1CCN(Cc2ccc(N)cc2)CC1`, the melting point fell in the range of 61 to 63 °C.

As to `CC(N)c1ccc2c(c1)NC(=O)CO2` (configuration not stated), the melting point is 130 to 132 °C.

As for `c1cc(OCC2CO2)c2cc[nH]c2c1` (configuration not stated), the melting point is 52 to 54 °C.

Compound `CC(=O)N(c1ccc(Cl)cc1)c1nc(CCl)cs1` came in with a melting point of 145 to 147 °C.

`CCCCOc1cc(C=O)ccc1OC` returned a melting point of 39 to 41 °C.

In the case of `CC(NC(=O)c1cc(-c2ccccc2)on1)C(=O)O` (configuration not stated), the melting point is 164 to 166 °C.

On to `CNC(C(N)=O)c1cccc(Br)c1` (configuration not stated), for which the melting point was 111 to 113 °C.

In the case of `CC(C)(C)n1ncc2c(=O)[nH]cnc21`, the melting point fell in the range of 226 to 228 °C.

Compound `Oc1ccccc1-c1nnc2n1CCCCC2` showed a melting point of 271 to 273 °C.

`Nc1cccc(N2CCNC2=O)c1`: the melting point lay within 149 to 151 °C.

Turning to `O=C(CCl)Nc1ccc(N2CCCCC2)nc1`, the melting point was in the range of 139 to 141 °C.

`N#CCc1cccc(C(N)=O)c1`: the melting point fell in the range of 157 to 159 °C.

Take `CCc1nc(C(=O)O)co1`: the melting point is 101 to 103 °C.

For `Cc1ccc(NC(=O)C(Cl)c2ccccc2)cc1` (configuration not stated), the melting point fell in the range of 143 to 147 °C.

`O=C(O)C1CCCN1C(=O)Cc1ccccc1` (configuration not stated) showed a melting point of 147 to 149 °C.

`Cn1cc(-c2nc3ccccn3c2N)cn1` registered a melting point of 149 to 151 °C.

As for `O=[N+]([O-])c1cccnc1N1CCC(CO)CC1`, the melting point lay within 71 to 73 °C.

`O=C(O)c1ccnc(Cl)c1F` came in with a melting point of 194 to 196 °C.

On to `O=C(CCl)Nc1cc(Cl)ccc1F`, for which the melting point was 98 to 102 °C.

`CC(Oc1ccc(F)cc1Cl)C(=O)O` (configuration not stated) displayed a melting point of 72 to 74 °C.

In turn, `Cc1n[nH]c(C)c1-c1ccccc1N` yielded a melting point of 162 to 164 °C.

`CSc1cc(Br)ccc1C=O` had a melting point of 81 to 83 °C.

In turn, `O=S(=O)(Cl)c1ccc(Cl)c2ccccc12` returned a melting point of 90 to 92 °C.

Compound `O=C(O)CC1OCCc2ccccc21` (configuration not stated) returned a melting point of 74 to 76 °C.

Compound `Cn1nc(-c2ccccn2)c(-c2ccc(F)cc2)c1N` had a melting point of 164 to 166 °C.

Compound `O=C(Cn1ccnc1)c1ccc(F)cc1` showed a melting point of 150 to 152 °C.

In turn, `O=C1NC(=O)N(C2CCCCC2)C1=O` displayed a melting point of 187 to 189 °C.

As for `COc1ccc(Sc2nsc(N)n2)cc1`, the melting point fell in the range of 138 to 140 °C.

`Cc1cc(-c2nc(C3CC3)no2)ccc1N` came in with a melting point of 87 to 89 °C.

Consider `CCC(=CC(=O)O)c1ccccc1`, for which the melting point was 92 to 94 °C.

Compound `NNC(=O)Nc1ccc2c(c1)OCO2` had a melting point of 164 to 166 °C.

The compound `COc1ccc(S(=O)(=O)N2CCOCC2)cc1C(=O)O` gave a melting point of 180 to 184 °C.

`Clc1cc(N2CCNCC2)ncn1` displayed a melting point of 100 to 102 °C.

Take `CNS(=O)(=O)c1cccc(CN)c1`: the melting point is 129 to 131 °C.

As to `CS(=O)(=O)NCCBr`, the melting point is 44 to 46 °C.

On to `CCCOc1ccc(C=O)c(OCCC)c1`, for which the melting point lay within 58 to 60 °C.

Consider `Nc1nc2ccc(Cl)cn2n1`, for which the melting point lay within 183 to 185 °C.

For the compound `Cn1c(-c2ccccc2)c(C(=O)O)c2ccccc21`, the melting point was 192 to 194 °C.

In the case of `Nc1ncnc2c(F)cc(Br)cc12`, the melting point is 343 to 345 °C.

Compound `Nc1cc(F)c(I)c(F)c1` showed a melting point of 113 to 115 °C.

As to `O=C(O)Cn1nc(-c2ccc(F)cc2)oc1=O`, the melting point fell in the range of 110 to 112 °C.

The compound `O=C(O)c1ccc(F)cc1OC(F)F` showed a melting point of 115 to 117 °C.

In turn, `Cn1nc(Br)c2c(Cl)ncnc21` had a melting point of 115 to 117 °C.

Compound `CCOC(=O)C(=O)c1ccc2c(c1)OCCO2` had a melting point of 65 to 67 °C.

For `CS(=O)(=O)Nc1ccc(Cl)cc1C(=O)O`, the melting point lay in the range of 199 to 201 °C.

For the compound `O=C(O)/C=C/c1ccc(F)cc1[N+](=O)[O-]`, the melting point lay within 176 to 178 °C.

`Cc1ccc(S(=O)(=O)N(C)C)cc1C(=O)O` returned a melting point of 173 to 175 °C.

`O=c1[nH]cnc2cnc(Cl)cc12` yielded a melting point of 309 to 311 °C.

With `CC(NC(N)=O)C12CC3CC(CC(C3)C1)C2` (configuration not stated), the melting point is 159 to 161 °C.

Compound `Sc1nc(-c2cccs2)no1` displayed a melting point of 108 to 110 °C.

Turning to `Nc1nc2ccccc2n1C1CCCCC1`, the melting point is 206 to 208 °C.

The compound `O=C(O)Cc1sc(-c2ccccc2)nc1-c1cccs1` had a melting point of 117 to 119 °C.

Consider `COc1ccc(Cc2nc3sc4c(c3c(=O)[nH]2)CCC4)cc1OC`, for which the melting point is 237 to 239 °C.

`Cc1cccc([N+](=O)[O-])c1I` returned a melting point of 67 to 69 °C.

Compound `O=C(O)c1cc(C2CC2)nc2c1cnn2Cc1ccccc1` came in with a melting point of 209 to 211 °C.

The compound `CNC(=O)c1cc(S(=O)(=O)Cl)cn1C` yielded a melting point of 154 to 156 °C.

As to `Cc1ccc(S(=O)(=O)Oc2ncnc3c(F)cc(Br)cc23)cc1`, the melting point was in the range of 204 to 206 °C.

Take `Nc1cccc(C(=O)Nc2cnccn2)c1`: the melting point was 135 to 137 °C.

On to `O=C1COc2cccc(S(=O)(=O)Cl)c2N1`, for which the melting point lay in the range of 96 to 98 °C.

Regarding `Oc1cn(-c2ccccc2)nn1`, the melting point lay in the range of 160 to 162 °C.

`Cc1ccc(C(=O)CC#N)cc1F` had a melting point of 82 to 84 °C.

As to `Nc1ccc(C(=O)O)nc1Br`, the melting point is 206 to 208 °C.

Compound `Nc1ccc(-c2nc3cc(Br)ccc3[nH]2)cc1` had a melting point of 219 to 221 °C.

Turning to `O=C(O)CSc1nnc(C2CC2)n1Cc1ccccc1`, the melting point lay in the range of 194 to 196 °C.

`O=C(O)C=CC(=O)c1ccc(F)c(F)c1` gave a melting point of 114 to 116 °C.

Take `NC(=O)c1cccc(NCc2ccc(F)cc2)c1`: the melting point is 136 to 138 °C.

`O=[N+]([O-])c1cc(Cl)cc(Cl)c1S(=O)(=O)Cl` returned a melting point of 218 to 221 °C.

In the case of `O=C(O)C1CCCN1C(=O)c1cc(Cl)cc(Cl)c1` (configuration not stated), the melting point lay within 162 to 164 °C.

Regarding `O=C(O)c1cc(S(=O)(=O)N2CCCCC2)ccc1N1CCCCC1`, the melting point is 143 to 145 °C.

In turn, `O=Cc1ccccc1S(=O)(=O)N1CCOCC1` displayed a melting point of 97 to 99 °C.

For the compound `CC(N)=NS(=O)(=O)c1cc(Br)ccc1Br`, the melting point fell in the range of 182 to 184 °C.

On to `Clc1ccc(-c2n[nH]cc2Br)cc1`, for which the melting point fell in the range of 140 to 142 °C.

The compound `CC(C(=O)Nc1cccc(N)c1)n1cccn1` (configuration not stated) came in with a melting point of 135 to 137 °C.

As for `CC(=O)c1cc(N)cc(C(C)=O)c1`, the melting point is 139 to 141 °C.

Regarding `Cc1sc(N)nc1C(C)C`, the melting point was 107 to 109 °C.

As for `Cc1c(C(=O)O)c(=O)oc2ccccc12`, the melting point lay in the range of 163 to 165 °C.

`Cc1cc(C(=O)O)c(C)n1C1CCCCC1` displayed a melting point of 204 to 206 °C.

Turning to `N#Cc1cc(Oc2ccc(CC(=O)O)cc2)ccn1`, the melting point was in the range of 169 to 171 °C.

For the compound `O=C1COc2cc(Br)c(Cl)cc2N1`, the melting point fell in the range of 281 to 283 °C.

`Cc1ccc(-c2csc(CC#N)n2)cc1` displayed a melting point of 91 to 93 °C.
